Source: patent US6506769B2, “Heterocyclic compounds useful as inhibitors of tyrosine kinases” (Boehringer Ingelheim Pharmaceuticals, Inc., priority 1999, dated 2003)

| SMILES | melting point |
| --- | --- |
| Cc1c(-c2cnco2)[nH]c(=O)c2c1ccc1nc(Nc3c(Cl)cccc3Cl)n(C)c12 [Example 20, 2-(2,6-Dichlorophenylamino)-1,6-dimethyl-7-oxazol-5-yl-1,8-dihydro-imidazo[4,5-h]isoquinolin-9-one] | > 300 °C |
| Cc1c(/C=C/CO)[nH]c(=O)c2c1ccc1nc(Nc3c(Cl)cccc3Cl)n(C)c12 [Example 14, 2-(2,6-Dichlorophenylamino)-1,6-dimethyl-7-(3-hydroxy-propen-1-yl)-1,8-dihydro-imidazo[4,5-h]isoquinolin-9-one] | 298 to 300 °C |
| O=c1[nH]c2ccccc2c2ccc3nc(Nc4c(Cl)cccc4Cl)[nH]c3c12 [Example 26, 2-(2,6-Dichlorophenylamino)-3,5-dihydro-imidazo[4,5-i]phenanthridin-4-one] | > 300 °C |
| Cc1c(-c2cncn2C)[nH]c(=O)c2c1ccc1nc(Nc3c(Cl)cccc3Cl)n(C)c12 [Example 21, 2-(2,6-Dichlorophenylamino)-1,6-dimethyl-7-(3-methyl-3H-imidazol-4-yl)-1,8-dihydro-imidazo[4,5-h]isoquinolin-9-one] | > 300 °C |
| Cc1c(CNCc2ccccc2)[nH]c(=O)c2c1ccc1nc(Nc3c(Cl)cccc3Cl)n(C)c12 [Example 19, 7-Benzylaminomethyl-2-(2,6-dichlorophenylamino)-1,6-dimethyl-1,8-dihydro-imidazo[4,5-h]-isoquinolin-9-one] | 231 to 234 °C |
| C=Cc1[nH]c(=O)c2c(ccc3nc(Nc4c(Cl)cccc4Cl)n(C)c32)c1C [Example 15, 2-(2,6-Dichlorophenylamino)-1,6-dimethyl-7-vinyl-1,8-dihydro-imidazo[4,5-h]isoquinoline-9-one] | > 300 °C |
| Cc1[nH]c(=O)c2c(ccc3nc(Nc4c(Cl)cccc4Cl)n(C)c32)c1CCO [Example 10, 2-(2,6-Dichlorophenylamino)-1,7-dimethyl-6-(2-hydroxyethyl)-1,8-dihydro-imidazo[4,5-h]isoquinoline-9-one] | > 300 °C |
| Cc1[nH]c(=O)c2c(ccc3nc(Nc4c(Cl)cccc4Cl)n(C)c32)c1CC(=O)N1CCOCC1 [Example 7, 2-(2,6-Dichlorophenylamino)-1,7-dimethyl-6-(2-morpholin-4-yl-2-oxoethyl)-1,8-dihydro-imidazo[4,5-h]isoquinoline-9-one] | > 300 °C |
| Cc1[nH]c(=O)c2c(ccc3nc(Nc4c(Cl)cccc4Cl)n(C)c32)c1CCN1CCOCC1 [Example 8, 2-(2,6-Dichlorophenylamino)-1,7-dimethyl-6-(2-morpholin-4-yl-ethyl)-1,8-dihydro-imidazo[4,5-h]isoquinoline-9-one] | 285 to 290 °C |
| CC1(C)C(=O)NC(=O)c2c1ccc1nc(Nc3c(Cl)cccc3Cl)sc21 [Example 5, 2-(2,6-Dichlorophenylamino)-6,6-dimethyl-6H-thiazolo[4,5-h]isoquinoline-7,9-dione] | > 300 °C |
| CC1(C)C(=O)NC(=O)c2c1ccc1nc(Nc3c(Cl)cccc3Cl)[nH]c21 [Example 1, 2-(2,6-Dichlorophenylamino)-6,6-dimethyl-1H,6H-imidazo[4,5-h]isoquinoline-7,9-dione] | 290 to 292 °C |

Other lines, results leading:

| melting point | SMILES |
| --- | --- |
| > 300 °C | COC(=O)/C=C/c1[nH]c(=O)c2c(ccc3nc(Nc4c(Cl)cccc4Cl)n(C)c32)c1C [Example 12, 3-[2-(2,6-Dichlorophenylamino)-1,6-dimethyl-9-oxo-8,9-dihydro-1H-imidazo[4,5-h]isoquinolin-7-yl]-acrylic acid methyl ester] |
| 235 to 236 °C | C=CC(O)c1[nH]c(=O)c2c(ccc3nc(Nc4c(Cl)cccc4Cl)n(C)c32)c1C (stereo not shown) [Example 16, 2-(2,6-Dichlorophenylamino)-1,6-dimethyl-7-(1-hydroxyprop-2-en-1-yl)-1,8-dihydro-imidazo[4,5-h]isoquinolin-9-one] |
| 287 to 290 °C | CC1(C)CNC(=O)c2c1ccc1nc(Nc3c(Cl)cccc3Cl)[nH]c21 [Example 2, 2-(2,6-Dichlorophenylamino)-6,6-dimethyl-7,8-dihydro-1H,6H-imidazo[4,5-h]isoquinoline-9-one] |
| 280 to 285 °C (dec.) | CCOC(=O)Cc1c(C)[nH]c(=O)c2c1ccc1nc(Nc3c(Cl)cccc3Cl)n(C)c12 [Example 9, 2-(2,6-Dichlorophenylamino)-1,7-dimethyl-9-oxo-1,8-dihydro-imidazo[4,5-h]isoquinolin-6-yl acetic acid ethyl ester] |
| > 300 °C (dec.) | Cn1c(Nc2c(Cl)cccc2Cl)nc2ccc3c4c([nH]c(=O)c3c21)CCC4 [Example 27, 2-(2,6-Dichlorophenylamino)-3-methyl-5,6,7,8-tetrahydro-3H-1,3,5-triaza-dicyclopenta[a,f]naphthalen-4-one] |
| > 300 °C | Cc1c(/C=C/CN)[nH]c(=O)c2c1ccc1nc(Nc3c(Cl)cccc3Cl)n(C)c12 [Example 28, 7-(3-Aminopropen-1-yl)-2-(2,6dichlorophenylamino)-1,6-dimethyl-1,8-dihydro-imidazo[4,5-h]-isoquinolin-9-one] |
| > 300 °C | Cc1[nH]c(=O)c2c(ccc3nc(Nc4c(Cl)cccc4Cl)[nH]c32)c1C [Example 3a, 2-(2,6-Dichlorophenylamino)-6,7-dimethyl-1,8-dihydro-imidazo[4,5-h]isoquinoline-9-one] |
| 175 to 177 °C | Cc1c(/C=C/CN2CCOCC2)[nH]c(=O)c2c1ccc1nc(Nc3c(Cl)cccc3Cl)n(C)c12 [Example 18, 2-(2,6-Dichlorophenylamino)-1,6-dimethyl-7-(3-morpholin-4-yl-propen-1-yl)-1,8-dihydro-imidazo[4,5-h]-isoquinolin-9-one] |
